# Source: ChEMBL document CHEMBL4680215, “Substituted 1-methyl-4-phenylpyrrolidin-2-ones - Fragment-based design of N-methylpyrrolidone-derived bromodomain inhibitors” (Eur J Med Chem, 2020)
# Biological target: Bromodomain-containing protein 4 (Homo sapiens, UniProt O60885)
# Test: Inhibition of GST-tagged BRD4-BD1 (49 to 170 residues) (unknown origin) using Histone H4 peptide as substrate incubated for 1.5 hrs by FRET assay
row,IC50 [µM],SMILES
1,35.2,CCN(CC)S(=O)(=O)c1ccc([C@@H]2CC(=O)N(C)C2)c(-c2ccc(OC)c(OC)c2)c1
2,123,CCN(CC)S(=O)(=O)c1ccc(C2CC(=O)N(C)C2)cc1 (stereo not given)
3,2670,CCN(CC)S(=O)(=O)c1ccc(C2CC(=O)N(C)C2)c(-c2csc3ccccc23)c1 (stereo not given)
4,144,CN1CC(c2ccc(S(=O)(=O)N3CCCCC3)cc2)CC1=O (stereo not given)
5,629,CN1C[C@@H](c2ccccc2)CC1=O
6,51.6,CCN(CC)S(=O)(=O)c1ccc(C2CC(=O)N(C)C2)c(-c2ccc(OC)c(OC)c2)c1 (stereo not given)
7,250,CCNS(=O)(=O)c1ccc(C2CC(=O)N(C)C2)cc1 (stereo not given)
8,4500,CCN(CC)S(=O)(=O)c1ccc(C2CC(=O)N(C)C2)c(CCc2ccccc2)c1 (stereo not given)
9,434,CN1CC(c2ccc(-c3ccccc3)cc2)CC1=O (stereo not given)
10,417,CN1CC(c2ccc(Br)cc2)CC1=O (stereo not given)
11,1680,CN1CC(c2ccc(S(=O)(=O)N3CCC[C@@H](C(=O)O)C3)cc2)CC1=O (stereo not given in full)
12,1430,CN1C[C@H](c2ccccc2)CC1=O
13,321,CN1CC(c2ccccc2Br)CC1=O (stereo not given)
14,1960,CN1CC(c2ccc(S(=O)(=O)N3CCC[C@H](C(=O)O)C3)cc2)CC1=O (stereo not given in full)
15,276,CN1CC(c2ccc(S(=O)(=O)N3CCOCC3)cc2)CC1=O (stereo not given)
16,1140,CN1CC(c2ccccc2)CC1=O (stereo not given)
17,575,CN1CC(c2ccccc2-c2ccccc2)CC1=O (stereo not given)
18,147,CCCNS(=O)(=O)c1ccc(C2CC(=O)N(C)C2)cc1 (stereo not given)
19,223,CN1CC(c2ccc(S(=O)(=O)N3C4CCC3CC(=O)C4)cc2)CC1=O (stereo not given)
20,> 5000,CCN(CC)S(=O)(=O)c1ccc(C2CC(=O)N(C)C2)c(CCCc2ccccc2)c1 (stereo not given)
21,217,CCN(CC)S(=O)(=O)c1ccc(C2CC(=O)N(C)C2)c(-c2ccc(N(C)C)cc2)c1 (stereo not given)
22,14.1,CCN(CC)S(=O)(=O)c1ccc([C@H]2CC(=O)N(C)C2)c(-c2ccc(OC)c(OC)c2)c1
23,450,CN1CC(c2ccc(S(=O)(=O)N3CCCc4ccccc43)cc2)CC1=O (stereo not given)
24,134,CC(C)NS(=O)(=O)c1ccc(C2CC(=O)N(C)C2)cc1 (stereo not given)
25,473,CN1CC(c2ccc(S(=O)(=O)N3CCC(c4ccccc4)CC3)cc2)CC1=O (stereo not given)
26,3200,CCN(CC)S(=O)(=O)c1ccc(C2CC(=O)N(C)C2)c(-c2ccccc2)c1 (stereo not given)
27,1390,CN1CC(c2ccc(S(=O)(=O)NCCCn3ccnc3)cc2)CC1=O (stereo not given)
28,151,CN1CC(c2ccc(S(=O)(=O)NC34CC5CC(CC(C5)C3)C4)cc2)CC1=O (stereo not given)
29,443,CN1CC(c2ccc(S(=O)(=O)NCc3ccccc3)cc2)CC1=O (stereo not given)
30,652,CCN(CC)S(=O)(=O)c1ccc(C2CC(=O)N(C)C2)c(Br)c1 (stereo not given)
